# Values of other authors as cited in patent US20080300304A1, “Ginger Fraction For Inhibiting Human Cyp Enzymes” (priority 2005, published 2008).
row,Structure (SMILES),oral availability [%]
1,CCOC(=O)C1=C(C)NC(C)=C(C(=O)OC)C1c1cccc(Cl)c1Cl (stereo not drawn) [felodipine],15
2,C/C=C/C[C@@H](C)C(=O)[C@H]1C(=O)N[C@@H](C(C)C)C(=O)N(C)CC(=O)N(C)[C@@H](CC(C)C)C(=O)N[C@@H](C(C)C)C(=O)N(C)[C@@H](CC(C)C)C(=O)N[C@@H](C)C(=O)N[C@H](C)C(=O)N(C)[C@@H](CC(C)C)C(=O)N(C)[C@@H](CC(C)C)C(=O)N(C)[C@@H](C(C)C)C(=O)N1C [valspodar],34
3,C=CC[C@@H]1/C=C(\C)C[C@H](C)C[C@H](OC)[C@H]2O[C@@](O)(C(=O)C(=O)N3CCCC[C@H]3C(=O)O[C@H](/C(C)=C/[C@@H]3CC[C@@H](O)[C@H](OC)C3)[C@H](C)[C@@H](O)CC1=O)[C@H](C)C[C@@H]2OC [tacrolimus],16
4,CC(=O)O[C@@]12CO[C@@H]1C[C@H](O)[C@@]1(C)C(=O)[C@H](O)C3=C(C)[C@@H](OC(=O)[C@H](O)[C@@H](NC(=O)OC(C)(C)C)c4ccccc4)C[C@@](O)([C@@H](OC(=O)c4ccccc4)[C@H]21)C3(C)C [docetaxel],8
5,CC[C@H](C)C(=O)O[C@H]1C[C@@H](C)C=C2C=C[C@H](C)[C@H](CC[C@@H]3C[C@@H](O)CC(=O)O3)[C@H]21 [lovastatin],4

# Other lines, results leading:
row,oral availability [%],Structure (SMILES)
1,15,CO[C@H]1C[C@@H]2CC[C@@H](C)[C@@](O)(O2)C(=O)C(=O)N2CCCC[C@H]2C(=O)O[C@H]([C@H](C)C[C@@H]2CC[C@@H](O)[C@H](OC)C2)CC(=O)[C@H](C)/C=C(\C)[C@@H](O)[C@@H](OC)C(=O)[C@H](C)C[C@H](C)/C=C/C=C/C=C/1C [sirolimus]
2,20,CO[C@H]1/C=C/O[C@@]2(C)Oc3c(C)c(O)c4c(c3C2=O)C2=NC3(CCN(CC(C)C)CC3)NC2=C(NC(=O)/C(C)=C\C=C\[C@H](C)[C@H](O)[C@@H](C)[C@@H](O)[C@@H](C)[C@H](OC(C)=O)[C@@H]1C)C4=O [rifabutin]
3,38,COc1cc(N)c(Cl)cc1C(=O)NC1CCN(CCCOc2ccc(F)cc2)CC1OC (stereo not drawn) [cisapride]
4,12,CC(C)c1c(C(=O)Nc2ccccc2)c(-c2ccccc2)c(-c2ccc(F)cc2)n1CC[C@@H](O)C[C@@H](O)CC(=O)O [atorvastatin]
